Experiment [1] concerns Tritrichomonas foetus. Description: Tested for anti-trichomonal activity in Tritrichomonas foetus, expressed as % reduction in the severity of peritoneal cavity infection at the dose of 25 mg/kg.
In experiment [2] the test system is Tritrichomonas foetus. Description: Tested for anti-trichomonal activity in Tritrichomonas foetus, expressed as % reduction in the severity of peritoneal cavity infection at the dose of 50 mg/kg.
In experiment [3] the test system is Tritrichomonas foetus. Description: Tested for anti-trichomonal activity in Tritrichomonas foetus, expressed as % reduction in the severity of peritoneal cavity infection at the dose of 12.50 mg/kg. The note with it: dose 12.5 mg/kg.

As for `Cn1c(=N)ccc2nc3ccccc3nc21`, the Reduction with Tritrichomonas foetus [1] is given as 75%; in the experiment with Tritrichomonas foetus [2], 98%; in the experiment on Tritrichomonas foetus [3], 34%. Turning to `Cn1c(=N)ccc2c1nc1ccccc1[n+]2[O-]`, the Reduction in the experiment on Tritrichomonas foetus [1] is listed as 97%; in the experiment on Tritrichomonas foetus [2], 98%; in the experiment with Tritrichomonas foetus [3], 100%. On to `N=c1ccc2c(nc3ccccc3[n+]2[O-])n1C1CCCCC1`, for which the figures for the Reduction with Tritrichomonas foetus [1] and in the experiment on Tritrichomonas foetus [3] were 96% and 21%, respectively. For the compound `N=c1ccc2c(nc3ccccc3[n+]2[O-])n1Cc1ccncc1`, the Reduction amounted to 81% in the experiment with Tritrichomonas foetus [1], 95% in the experiment with Tritrichomonas foetus [2] and 18% in the experiment with Tritrichomonas foetus [3]. Take `N=c1ccc2c(nc3ccccc3[n+]2[O-])n1CCO`: the Reduction with Tritrichomonas foetus [1] amounted to 57%. For `COCCn1c(=N)ccc2c1nc1ccccc1[n+]2[O-]`, the values for the Reduction with Tritrichomonas foetus [1] and in the experiment on Tritrichomonas foetus [3] were 96% and 0%, respectively. The corresponding values for `CCn1c(=N)ccc2c1nc1ccccc1[n+]2[O-]` are 100% and 0%. `C=CCn1c(=N)ccc2c1nc1ccccc1[n+]2[O-]` showed a Reduction in the experiment on Tritrichomonas foetus [1] of 38%. With `CCOCCn1c(=N)ccc2c1nc1ccccc1[n+]2[O-]`, the Reduction in the experiment with Tritrichomonas foetus [2] turned out to be 9%.

For the compound `N=c1ccc2nc3ccccc3nc2n1Cc1ccncc1`, in the experiment on Tritrichomonas foetus [2], the Reduction is 15%. The same measure, in the same setting: in the case of `CCCn1c(=N)ccc2c1nc1ccccc1[n+]2[O-]` it was 0%. Turning to `N=c1ccc2c(nc3ccccc3[n+]2[O-])n1Cc1ccccc1`, in the experiment on Tritrichomonas foetus [1], the Reduction was 19%. In the case of `COC(Cn1c(=N)ccc2c1nc1ccccc1[n+]2[O-])OC`, the Reduction in the experiment on Tritrichomonas foetus [1] stood at 25%. With `Cn1c(=O)ccc2nc3ccccc3nc21`, the Reduction in the experiment on Tritrichomonas foetus [1] came to 18%. In turn, `Cn1c(=O)ccc2c1nc1ccccc1[n+]2[O-]` returned a Reduction in the experiment on Tritrichomonas foetus [1] of 23%. Take `CCn1c(=N)ccc2nc3ccccc3nc21`: the Reduction in the experiment on Tritrichomonas foetus [1] is reported as 89%; in the experiment on Tritrichomonas foetus [3], 0%.

Values taken from ChEMBL document CHEMBL1122197, “Pyridoquinoxaline N-oxides. 1. A new class of antitrichomonal agents” (1982).
